Reference: publication PMC4279401 (Oncotarget, 2014)
“Also recorded” adds a separate entry of the source. Like-named read-outs stand apart in the source and are kept apart here.

What was measured:
MDA-MB231 cells [1] = experiment: ALDEFLUOR assay; assay type: cell-based, Human; conditions: in words
Method: (§1) 5 × 10^4 cells/well were incubated with compounds for 14 days. The ALDH activity of cells was determined by using the ALDEFLUOR assay kit (StemCell Technologies) according to the manufacturer's instructions. Combinations of fluorochrome-conjugated monoclonal antibodies against human CD44-FITC and CD24-PE were obtained from BD Biosciences. Primary antibodies or the respective isotype controls (BD Biosciences) were added to the cell suspension, according to the manufacturer's recommendation, and incubated at 4°C for 20 min. Dead cells were eliminated using propidium iodide (Sigma). The labelled cells were analyzed on a FACS Calibur (BD Biosciences/Applied Biosystems).

H3K79 methylation [2] = experiment: Western blot of xenograft tumor tissues; assay type: in vivo, athymic nude mice; conditions: day 14, Western blot, in words
Method: (§2) 10^6 cells/well were incubated with increasing concentrations of a compound for 5 days and histones extracted with the EpiQuik™ Total Histone Extraction Kit (Epigentek) according to the manufacturer's protocol. Equal amounts of histones (2μg) were separated on SDS-PAGE and transferred to PVDF membranes. The blots were probed with primary antibodies, followed by anti-rabbit IgG (Thermo Scientific) secondary antibodies. For western blot analysis of MDA-MB231 xenograft tumors, tumors were harvested and frozen in liquid nitrogen. Histones were extracted and analyzed by immunoblotting as described above.
Female athymic nude mice (4 to 6 weeks old) were obtained from Charles River (Wilmington, MA, USA) and maintained under pathogen-free conditions. The use of athymic nude mice and their treatment were approved by the BCM Institutional Animal Care and Use Committee, and the experiments were conducted in strict compliance with the regulations. 2 ×10^6 MDA-MB-231 cells were injected into the upper right mammary fat pad of the recipient mouse and tumor growth and animal weights were monitored twice a week. The tumor volumes were calculated using the formula length × (width)^2/2. When the tumors reached a size of about 20–30 mm^3, mice were randomly segregated into control and treatment groups. […]

H3K79 methylation [3] = experiment: Western blot of histone methylation in MDA-MB231; assay type: cell-based, Human; conditions: Homo sapiens, MDA-MB-231, read-out: IC50 of H3K79 methylation inhibition
Method: Human cell lines BT549, MDA-MB231, MCF-7, MDA-MB157, HCC70, A549 and NB4 were obtained from the American Type Culture Collection (ATCC) and cultured using ATCC recommended conditions. Primary antibodies against H3K79me2, H3K27me3, H3K4me3, H3K36me2, H4K20me3, H3K9me-pan were purchased from Cell Signaling (Danvers, MA). siRNA experiments were performed by transfecting MDA-MB-231 cells with X-tremeGENE Transfection Reagent (Roche) and 10 nM siRNA (Invitrogen), according to the manufacturer's protocol.
as §2

MDA-MB231 xenograft = MDA-MB231 xenograft mouse model; assay type: in vivo, athymic nude mice; conditions: 4 mg/kg/day for 28 days
Method: (§3) Female athymic nude mice (4 to 6 weeks old) were obtained from Charles River (Wilmington, MA, USA) and maintained under pathogen-free conditions. The use of athymic nude mice and their treatment were approved by the BCM Institutional Animal Care and Use Committee, and the experiments were conducted in strict compliance with the regulations. 2 ×10^6 MDA-MB-231 cells were injected into the upper right mammary fat pad of the recipient mouse and tumor growth and animal weights were monitored twice a week. The tumor volumes were calculated using the formula length × (width)^2/2. When the tumors reached a size of about 20–30 mm^3, mice were randomly segregated into control and treatment groups. Mice in the treatment group were implanted subcutaneously an osmotic pumps (Alzet model 2004) containing 2.8 mg of 3 in 200 μL of PBS. Animals were sacrificed when the volumes of tumors reaching ~1.5 cm^3. Log-rank analysis was used to determine statistical significance of the survival curves using Prism 5.0 (GraphPad).

MDA-MB231 [4] = experiment: Secondary mammosphere assay; assay type: cell-based, Human; conditions: MDA-MB231, in words
Method: The protocol for mammosphere assay was performed using a published method. The numbers of secondary mammospheres in each well were counted using a Leica MZ12.5 microscope.

[5] = tested on: methylation at H3K4, H3K9, H3K27, H3K36 and H4K20; experiment: Western blot of methylation at other histone lysines in MDA-MB231; assay type: cell-based, Human; conditions: at concentrations of <1 μM, in words
Method: as §2

MDA-MB231 cells [6] = experiment: Cell cycle analysis, propidium iodide FACS; assay type: cell-based, Human
Method: (§4) For apoptosis and cell cycle analysis, 10^5 cells/well were incubated with increasing concentrations of a compound for 7 or 10 days. Apoptosis was determined using the FITC Annexin V Apoptosis Detection Kit I (BD Bioscience) according to the manufacturer's protocol. Cells for cell cycle analysis were fixed in cold 70% ethanol at 4°C and stained with Propidium iodide (Sigma-Aldrich) (20 μg/ml) and RNase A (10 μg/ml) for 30min. Cells were analyzed using a FACS Calibur (BD Biosciences/Applied Biosystems) and data were processed using the program Flowjo (version7.6.5).

MCF-7 = experiment: Cell proliferation, MTT assay; assay type: cell-based; conditions: Homo sapiens
MDA-MB231 cells [7] = experiment: Apoptosis, Annexin V FACS; assay type: cell-based, Human; conditions: 20 nM, day 7
Method: as §4

MDA-MB231 [8] = experiment: Transwell cell migration assay; assay type: cell-based, Human; conditions: MDA-MB231, Transwell with and without Matrigel, in words
Method: 5 × 10^4 cells/well were incubated with compounds for 14 days. For transwell migration assays, 5× 10^4 cells were plated in the top chamber with the non-coated membrane (24-well insert; pore size, […]; BD Biosciences). For invasion assays, 5× 10^4 cells were plated in the top chamber with Matrigel-coated membrane. The cells on the apical side of each insert were then scraped off after 22 h for both assays. The wells were washed with PBS, fixed with 100% methanol and stained with DAPI. Cells that had migrated to the basal side of the membrane were visualized and counted with a Nikon Eclipse TE2000-U microscope at 10×. Pictures of three random fields were obtained and the number of cells that had migrated quantified using ImageJ analysis software.

BT549 = experiment: Cell proliferation, MTT assay; assay type: cell-based; conditions: Homo sapiens
MDA-MB231 [9] = experiment: Cell proliferation, MTT assay; assay type: cell-based; conditions: Homo sapiens
MDA-MB231 cells [10] = experiment: CD44/CD24 flow cytometry; assay type: cell-based, Human; conditions: MDA-MB231, FACS, in words
Method: as §1

Toxicity in treated mice = assay type: in vivo
Method: as §3

[11] = tested on: MDA-MB231, BT549 and MCF-7 breast cancer cells; experiment: Cell proliferation, MTT assay, DOT1L+ breast cancer cells; assay type: cell-based, Human
H3K27 methylation = experiment: Western blot of histone methylation in MDA-MB231; assay type: cell-based; conditions: Homo sapiens, MDA-MB-231, Fig. 4b, read-out: IC50 against H3K27 methylation
Method: as §2

SAHH = conditions: read-out: Ki against SAHH; cited from earlier work

Question: What does the source list for `Nc1ncnc2c1ncn2[C@@H]1C=C(CO)[C@@H](O)[C@H]1O` [Compound 3, neplanocin A]?
Answer: ALDH+ cell population (MDA-MB231 cells [1]): decreased; also recorded: reduced; H3K79 methylation in tumor tissues (H3K79 methylation [2]): only significantly reduced H3K79 methylation levels; also recorded: only H3K79 methylation was significantly inhibited; IC50 (H3K79 methylation [3]): ~50 nM; animal survival (MDA-MB231 xenograft; in words): significantly prolonged animal survivals; tumor growth (MDA-MB231 xenograft; in words): significantly inhibited; tumor growth inhibition (MDA-MB231 xenograft; subcutaneous osmotic pump): > 95%; tumors exhibiting regression during the treatment (MDA-MB231 xenograft; remained 1-3 mm in diameter): Four tumors (out of nine); secondary mammosphere formation (MDA-MB231 [4]): more pronounced activity; also recorded: inhibited secondary mammosphere formation; inhibitory activity against methylation at H3K4, H3K9, H3K27, H3K36 and H4K20 [5]: no or negligible inhibitory activities; also recorded: negligible effects; sub-G1 phase cell population (MDA-MB231 cells [6]; MDA-MB231, in words): increased sub-G1 population; sub-G phase cell population after treatment (MDA-MB231 cells [6]; MDA-MB231, control 4.4%): 21.2%; EC50 (MCF-7; MCF7, 72 h, MCF-7, 3-day treatment, read-out: Anti-proliferative activity EC50): 910 nM; EC50 (MCF-7; MCF7, 360 h, MCF-7, 15-day, read-out: EC50, 15-day treatment): 51 nM; apoptosis of MDA-MB231 cells (MDA-MB231 cells [7]): 12.1%; cell migration and invasion (MDA-MB231 [8]): more pronounced activity; also recorded: reduced cell migration and invasiveness; EC50 (BT549; BT-549, 72 h, BT549, 3-day treatment, read-out: Anti-proliferative activity EC50): 2600 nM; EC50 (BT549; BT-549, 360 h, BT549, 15-day, read-out: EC50, 15-day treatment): 29 nM; EC50 (MDA-MB231 [9]; MDA-MB-231, 72 h, MDA-MB231, 3-day treatment, read-out: Anti-proliferative activity EC50): 930 nM; EC50 (MDA-MB231 [9]; MDA-MB-231, 360 h, MDA-MB231, 15-day, read-out: EC50, 15-day treatment): 9 nM; CD44+/CD24− cell population (MDA-MB231 cells [10]): reduced; also recorded: decreased; cell population expressing high levels of CD24 (MDA-MB231 cells [10]): significantly expanded; also recorded: increased cell population expressing high levels of CD24; toxicities (Toxicity in treated mice; 4 mg/kg/day for 28 days, in words): no obvious toxicities; changes in blood cell counts, hemoglobin and body weight (Toxicity in treated mice; 4 mg/kg/day, day 28, in words): did not cause significant changes; also recorded: no significant changes; EC50 ([11]; Homo sapiens, 72 h, three DOT1L+ breast cancer cells, 3-day, read-out: EC50, 3-day treatment): 900 to 2600 nM; times more active in 15-day than in the corresponding 3-day data ([11]; MDA-MB231, BT549, MCF-7): 18 - 100 ×; IC50 (H3K27 methylation): > 6 µM; Ki (SAHH): 8.4 nM
